We go through 2 compounds from patent publication US20130101530A1, “ANTIMICROBIAL PRESERVATIVE COMPOSITIONS FOR PERSONAL CARE PRODUCTS” (GALAXY SURFACTANTS LTD., priority 2011, published 2013).

For data set [1], the system named is Malassezia furfur MTCC 1374. The data set is described as follows: Minimum inhibitory concentration. The format is cell-based. The conditions noted are these: MTCC1374.
The test system of data set [2] is Bacillus subtilis ATCC 9372. In words: microbe, parasite or virus in culture. The class given is cell-based. Conditions: ATCC9372.
Data set [3] deals with Pseudomonas aeruginosa Immuno type IV. In words: Minimum inhibitory concentration. The format is cell-based.
In data set [4] the test system is Propionibacterium acnes MTCC 1951. The data set is described as follows: Minimum inhibitory concentration. The format is cell-based. Conditions: Cutibacterium acnes, MTCC1951.
In data set [5] the test system is Escherichia coli ATCC 10142. The data set is described as follows: Minimum inhibitory concentration. The conditions noted are these: ATCC10142. The format is cell-based.
The test system of data set [6] is all types of microbes (Gram positive, Gram negative bacteria, yeast and mould; the chosen eight organisms). In words: Minimum inhibitory concentration, whole panel. Conditions: up to 1.0% concentration; bacteria, yeast and mould. The class given is cell-based.
The nature of data set [7]: Reduction in surface tension of water. The format is physicochemical. The protocol: The ‘liquid alcohol ether’ as used herein like 2-ethyl hexyl glyceryl ether is also a surfactant where the hydrophobe is provided by octyl group and the hydrophilic portion is the two hydroxyl groups of glycerine moiety and the ether linkage.
A mixture of octanoic acid (114 g, […]), BHT (0.3 g) and monoethanol amine (61 g, […]) is stirred under nitrogen blanket in a pressure vessel at 140° C. for 4 hr and then the temperature is raised to 165° C. for additional one hour. At this stage, acid value is normally found to be around 5 or less. The reaction was then cooled under mild vacuum to 60° C. and the molten mass is converted into off-white flakes (148 g, 95%) by pouring it on a glass plate. (Melting point 62-64° C., acid value 5, IR (KBr): 1640 cm^−1 (carbonyl of amide), 1556 cm^−1, 2919 cm^−1, 3289 cm^−1 (NH of amide) Reduction is surface tension of water: 0.05% solution, 38.5 dyne/cm, 0.1% solution 30.5 dyne/cm.

In data set [8] the test system is Staphylococcus aureus ATCC 6538S. The data set is described as follows: Minimum inhibitory concentration. The format is cell-based. Conditions: ATCC6538S.
In data set [9] the test system is Candida albicans ATCC 10231. In words: Minimum inhibitory concentration. The class given is cell-based. The conditions noted are these: ATCC10231.
In data set [10] the test system is Aspergillus niger ATCC 16404. The data set is described as follows: Minimum inhibitory concentration. The format is cell-based. Conditions: ATCC16404, Aspergillus niger.
For data set [11] the following is noted: 0.1% aqueous solution at 25° C.; water 72 dynes/cm; cited from earlier work.

Read-outs that look alike come from different tables or passages of the source.

Consider `CCCCCCCC(=O)NCCO` [Octanoyl MEA amide, N-(2-hydroxylethyl)caprylic acid amide], for which the MIC in data set [1] (Malassezia furfur MTCC 1374, read-out: MINIMUM INHIBITORY CONCENTRATION) was greater than 10000 µg/mL; in [1] (in Preservative Blend No 2 (10:10:80), Malassezia furfur, read-out: Concentration of individual component at MIC of Preservative Blend No 2), 400 µg/mL; in data set [2] (Bacillus subtilis ATCC 9372, read-out: MINIMUM INHIBITORY CONCENTRATION), greater than 10000 µg/mL; in data set [2] (in Preservative Blend No 2 (10:10:80), Bacillus subtilis, read-out: Concentration of individual component at MIC of Preservative Blend No 2), 200 µg/mL; in data set [3] (Pseudomonas aeruginosa Immuno type IV, read-out: MINIMUM INHIBITORY CONCENTRATION) it was greater than 10000 µg/mL; in data set [3] (in Preservative Blend No 2 (10:10:80), Pseudomonas aeruginosa, read-out: Concentration of individual component at MIC of Preservative Blend No 2), 300 µg/mL. The MIC was greater than 10000 µg/mL in data set [4] (Propionibacterium acnes MTCC 1951, read-out: MINIMUM INHIBITORY CONCENTRATION); 200 µg/mL in data set [4] (in Preservative Blend No 2 (10:10:80), Propionibacterium acnes, read-out: Concentration of individual component at MIC of Preservative Blend No 2); greater than 10000 µg/mL in data set [5] (Escherichia coli ATCC 10142, read-out: MINIMUM INHIBITORY CONCENTRATION); 300 µg/mL in data set [5] (in Preservative Blend No 2 (10:10:80), Escherichia coli, read-out: Concentration of individual component at MIC of Preservative Blend No 2); greater than 10000 µg/mL in data set [8] (Staphylococcus aureus ATCC 6538S, read-out: MINIMUM INHIBITORY CONCENTRATION); 300 µg/mL in data set [8] (in Preservative Blend No 2 (10:10:80), Staphylococcus aureus, read-out: Concentration of individual component at MIC of Preservative Blend No 2). Also, the MIC in data set [9] (Candida albicans ATCC 10231, read-out: MINIMUM INHIBITORY CONCENTRATION) was greater than 10000 µg/mL; in data set [9] (in Preservative Blend No 2 (10:10:80), Candida albicans, read-out: Concentration of individual component at MIC of Preservative Blend No 2), 200 µg/mL; in [10] (in Preservative Blend No 2 (10:10:80), read-out: Concentration of individual component at MIC of Preservative Blend No 2) it was 200 µg/mL; in data set [10] (read-out: MINIMUM INHIBITORY CONCENTRATION), greater than 10000 µg/mL. Also, in data set [6], the “Antimicrobial activity of the ingredient alone” value is recorded as “did not exhibit any antibacterial activity”. Moreover, the “Surface tension of water” value is reported as 38 dynes/cm in data set [7] (0.05% level) and 30 dynes/cm in data set [7] (0.1% concentration).

As for `CCCCC(CC)COCC(O)CO` (centres unmarked) [2-ethyl hexyl glyceryl ether, 3-(2-ethylhexyl) oxy 1,2-propanediol], the “Surface tension of water” value in data set [11] is 32 dynes/cm.
